Laboratory results as given in paper PMC3371665 (Journal of Medicinal Chemistry, 2012).
One block for each molecule: values may come before it.

Legend:
mA2AAR = mA2AAR (Mus musculus, UniProt Q60613); conditions: read-out: Affinity (Ki) mA2A; ref Melman et al.[21]; cited from earlier work
mA1AR = biological target: T1, mA1AR (Mus musculus, UniProt Q60612); conditions: read-out: Affinity (Ki) mA1; ref Melman et al.[21]; cited from earlier work
T1 sequence (Q60612 1-326): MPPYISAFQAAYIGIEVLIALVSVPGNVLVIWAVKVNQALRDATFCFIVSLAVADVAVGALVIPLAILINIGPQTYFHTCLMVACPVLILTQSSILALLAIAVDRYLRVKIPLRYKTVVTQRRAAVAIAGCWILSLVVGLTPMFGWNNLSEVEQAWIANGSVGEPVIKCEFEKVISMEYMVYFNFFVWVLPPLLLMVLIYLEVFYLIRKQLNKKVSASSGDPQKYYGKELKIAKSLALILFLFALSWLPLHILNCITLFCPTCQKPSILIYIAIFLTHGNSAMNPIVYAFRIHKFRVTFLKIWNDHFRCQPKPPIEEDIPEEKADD

mA3AR = biological target: T2, mA3AR (Mus musculus, UniProt Q61618); conditions: read-out: Affinity (Ki) mA3; ref Melman et al.[21]; cited from earlier work
T2 sequence (Q61618 1-319): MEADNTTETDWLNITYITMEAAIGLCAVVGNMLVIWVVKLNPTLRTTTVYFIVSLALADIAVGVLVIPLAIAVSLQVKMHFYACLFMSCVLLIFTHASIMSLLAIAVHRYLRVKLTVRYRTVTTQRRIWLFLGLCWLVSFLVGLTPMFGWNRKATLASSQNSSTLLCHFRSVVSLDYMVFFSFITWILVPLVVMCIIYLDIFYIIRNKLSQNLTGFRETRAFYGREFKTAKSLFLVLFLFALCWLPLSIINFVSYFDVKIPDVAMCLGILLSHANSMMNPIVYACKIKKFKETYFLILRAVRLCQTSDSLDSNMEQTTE

hA1AR = biological target: T3, hA1AR (Homo sapiens, UniProt P30542); assay: Radioligand binding at hA1AR
T3 sequence (P30542 1-326): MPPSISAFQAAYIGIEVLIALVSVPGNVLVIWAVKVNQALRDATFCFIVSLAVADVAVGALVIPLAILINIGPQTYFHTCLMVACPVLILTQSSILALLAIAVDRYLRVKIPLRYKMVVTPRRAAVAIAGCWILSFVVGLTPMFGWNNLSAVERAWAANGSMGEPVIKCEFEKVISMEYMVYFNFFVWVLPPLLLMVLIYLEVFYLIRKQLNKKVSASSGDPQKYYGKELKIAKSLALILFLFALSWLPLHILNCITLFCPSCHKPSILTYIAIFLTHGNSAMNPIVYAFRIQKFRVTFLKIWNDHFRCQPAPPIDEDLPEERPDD

hA2AAR = hA2AAR (Homo sapiens, UniProt P29274); assay: Radioligand binding at hA2AAR
hA3AR [1] = biological target: T4, hA3AR (Homo sapiens, UniProt P0DMS8); assay: Radioligand binding at hA3AR
T4 sequence (P0DMS8 1-318): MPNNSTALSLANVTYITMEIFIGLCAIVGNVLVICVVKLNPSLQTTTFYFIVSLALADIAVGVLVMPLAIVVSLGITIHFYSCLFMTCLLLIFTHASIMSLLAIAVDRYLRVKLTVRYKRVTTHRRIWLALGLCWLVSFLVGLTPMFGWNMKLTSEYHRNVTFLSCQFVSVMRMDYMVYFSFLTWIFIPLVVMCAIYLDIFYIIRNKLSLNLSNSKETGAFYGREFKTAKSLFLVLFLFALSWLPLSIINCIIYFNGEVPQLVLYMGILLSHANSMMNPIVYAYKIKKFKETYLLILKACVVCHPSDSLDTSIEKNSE

hA3AR [2] = biological target: T4, hA3AR; assay type: cell-based; conditions: at 10 μM

Sequence of hA2AAR (P29274 whole entry): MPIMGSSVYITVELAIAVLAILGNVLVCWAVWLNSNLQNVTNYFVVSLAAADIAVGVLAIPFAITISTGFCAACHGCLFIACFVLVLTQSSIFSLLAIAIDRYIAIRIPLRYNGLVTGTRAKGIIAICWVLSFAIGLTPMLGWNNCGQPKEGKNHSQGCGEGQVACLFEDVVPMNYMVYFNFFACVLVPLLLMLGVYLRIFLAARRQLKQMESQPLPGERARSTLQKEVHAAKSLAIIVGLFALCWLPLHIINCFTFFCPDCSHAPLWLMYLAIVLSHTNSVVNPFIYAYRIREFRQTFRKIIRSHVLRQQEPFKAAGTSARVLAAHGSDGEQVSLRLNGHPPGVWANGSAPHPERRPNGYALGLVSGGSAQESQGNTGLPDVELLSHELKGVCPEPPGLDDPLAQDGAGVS
Sequence of mA2AAR (Q60613 whole entry): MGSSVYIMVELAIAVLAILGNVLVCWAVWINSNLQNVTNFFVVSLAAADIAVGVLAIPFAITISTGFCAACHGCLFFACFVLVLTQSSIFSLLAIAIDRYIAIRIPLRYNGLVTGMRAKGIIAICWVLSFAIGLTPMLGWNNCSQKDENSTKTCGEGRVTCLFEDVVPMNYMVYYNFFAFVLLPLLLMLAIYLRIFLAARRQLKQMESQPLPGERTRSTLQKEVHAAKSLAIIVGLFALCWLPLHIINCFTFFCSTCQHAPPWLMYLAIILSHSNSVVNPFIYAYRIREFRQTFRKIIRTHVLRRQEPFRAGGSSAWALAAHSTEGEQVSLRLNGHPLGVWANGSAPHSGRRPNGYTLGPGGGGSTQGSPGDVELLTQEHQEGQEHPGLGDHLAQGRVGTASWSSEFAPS

Structure (SMILES): CNC(=O)[C@@]12C[C@@H]1[C@@H](n1cnc3c(NCc4cccc(I)c4)nc(Cl)nc31)[C@H](O)[C@@H]2O [Compound 4]
- Ki (mA2AAR): 5350 nM
- Ki (mA1AR): 7.32 ± 1.5 nM
- Ki (mA3AR): 0.8 ± 0.14 nM

- inhibition at 10 µM (hA1AR; read-out: % inhibition of radioligand binding hA1, at 10 μM, n = 3): < 20%
- inhibition at 10 µM (hA2AAR; read-out: % inhibition of radioligand binding hA2A, at 10 μM, n = 3): < 20%
Structure (SMILES): CNC(=O)[C@@]12C[C@@H]1[C@@H](n1cnc3c(NC)nc(C#Cc4ccccc4)nc31)[C@H](O)[C@@H]2O [Compound 9, (1S,2R,3S,4R,5S)-2,3-Dihydroxy-N-methyl-4-(6-(methylamino)-2-(phenylethynyl)-9H-purin-9-yl)bicyclo[3.1.0]hexane-1-carboxamide]

- Ki (hA3AR [1]; Affinity (Ki) hA3, [125I]I-AB-MECA, CHO cells, n = 3–5): ~0.6 nM
Structure (SMILES): CNC(=O)[C@@]12C[C@@H]1[C@@H](n1cnc3c(NC)nc(C#Cc4ccc(F)cc4)nc31)[C@H](O)[C@@H]2O [Compound 13, (1S,2R,3S,4R,5S)-4-(2-((4-Fluorophenyl)ethynyl)-6-(methylamino)-9H-purin-9-yl)-2,3-dihydroxy-N-methylbicyclo[3.1.0]hexane-1-carboxamide]

- reduction of A3AR binding affinity compared to the H analogue 9 (hA3AR [1]): 12 fold
Structure (SMILES): CNC(=O)[C@@]12C[C@@H]1[C@@H](n1cnc3c(NC)nc(C#Cc4ccc(C(C)(C)C)cc4)nc31)[C@H](O)[C@@H]2O [Compound 22, (1S,2R,3S,4R,5S)-4-(2-((4-tert-Butylphenyl)ethynyl)-6-(methylamino)-9H-purin-9-yl)-2,3-dihydroxy-N-methylbicyclo[3.1.0]hexane-1-carboxamide]

- Ki (hA1AR): > 10000 nM
Structure (SMILES): CNC(=O)[C@@]12C[C@@H]1[C@@H](n1cnc3c(NCc4cccc(Cl)c4)nc(C#Cc4ccccc4)nc31)[C@H](O)[C@@H]2O [Compound 27, (1S,2R,3S,4R,5S)-4-(6-(3-Chlorobenzylamino)-2-(phenylethynyl)-9H-purin-9-yl)-2,3-dihydroxy-N-methylbicyclo[3.1.0]hexane-1-carboxamide]

Structure (SMILES): CNC(=O)[C@@]12C[C@@H]1[C@@H](n1cnc3c(NCc4cccc(Cl)c4)nc(C#Cc4ccc(F)c(F)c4)nc31)[C@H](O)[C@@H]2O [Compound 31, (1S,2R,3S,4R,5S)-4-(6-(3-Chlorobenzylamino)-2-((3,4-difluorophenyl)ethynyl)-9H-purin-9-yl)-2,3-dihydroxy-N-methylbicyclo[3.1.0]hexane-1-carboxamide]
- agonist type at the A3AR (hA3AR [2]): full agonist

- activity at A1 (hA1AR): inactive
- activity at A2A (hA2AAR): inactive
Structure (SMILES): CNC(=O)[C@@]12C[C@@H]1[C@@H](n1cnc3c(NCc4cccc(Cl)c4)nc(C#Cc4ccc(-c5ccccc5)cc4)nc31)[C@H](O)[C@@H]2O [Compound 34, (1S,2R,3S,4R,5S)-4-(2-(Biphenyl-4-ylethynyl)-6-(3-chlorobenzylamino)-9H-purin-9-yl)-2,3-dihydroxy-N-methylbicyclo[3.1.0]hexane-1-carboxamide]
